Measured values published in patent US20180177792A1, “COMPOSITIONS AND METHODS FOR TREATING PATIENTS WITH RTK MUTANT CELLS” (IGNYTA, INC., priority 2015, published 2018).
Like-named read-outs stand apart in the source and are kept apart here.

What was measured:
[1] = tested on: mutant cells harboring the TrkA-G595C mutation or the TrkA-G667C mutation; experiment: screen for inhibition of proliferation of mutant KM12 and Ba/F3-tel/trkA cells; format: cell-based
Procedure: (§1) Each treatment condition was performed in duplicate.
(§2) In this experiment, each of the following cell lines: Ba/F3-tel/trkA, Ba/F3-tel/trkA-10nMA (G595R), KM12-DMSO, KM12-30nM101-B (G667C), KM12-100nM101-B (G667C), KM12-300nM101-B (G595R) was screened against a number of chemical compounds.

BaF3-tel/trkB cells = molecular target: T1, BaF3-tel/trkB cells (Homo sapiens, UniProt Q16620); experiment: growth inhibition, Ba/F3-tel/trkB cells; format: cell-based, murine; conditions: read-out: IC50, Table 9
T1 construct: fused on or other part: P41212 (Transcription factor ETV6)

BaF3-tel/trkC cells = molecular target: T2, BaF3-tel/trkC cells (Homo sapiens, UniProt Q16288); experiment: growth inhibition, Ba/F3-tel/trkC cells; format: cell-based, murine
T2 construct: fused on or other part: P41212 (Transcription factor ETV6)

[2] = tested on: KM12-TPM3/trkA_G595R cells; experiment: growth inhibition screen, KM12 mutant cells with G595R; format: cell-based, human
Procedure: as §1, §2

[3] = tested on: KM12-TPM3/trkA_G667C cells; experiment: growth inhibition screen, KM12 mutant cells with G667C; format: cell-based, human
Procedure: as §1, §2

[4] = tested on: parental KM12 cells (KM12-DMSO; KM12-TPM3/trkA_WT); experiment: growth inhibition (CellTiter-Glo, 3 days), parental KM12 cells cultured in DMSO
BaF3-tel/trkA_WT cells = molecular target: T3, BaF3-tel/trkA_WT cells (Homo sapiens, UniProt P04629); experiment: growth inhibition, parental Ba/F3-tel/trkA cells; format: cell-based, murine
T3 construct: Input Ba/F3-Tel/TrkA cell line was an engineered cell line harboring a recombinant TrkA fusion gene ETV6-TrkA; fused on or other part: P41212 (Transcription factor ETV6)
Procedure: (§3) Input Ba/F3-Tel/TrkA cell line was an engineered cell line harboring a recombinant TrkA fusion gene ETV6-TrkA. […] Cell viability was evaluated by trypan blue and counted every two days (FIG. 9).
as §1, §2

[5] = molecular target: T4, BaF3-tel/trkA-10 nMA(G595R) cells (Homo sapiens, UniProt P04629, G595R, cells depend on it); format: cell-based, murine; conditions: BaF3-tel/trkA_G595R
T4 construct: IC50; other: BaF3-tel/trkA-10 nMA(G595R); fused on or other part: P41212 (Transcription factor ETV6)
Procedure: as §3, §1, §2

KM12-1 nM A cells = experiment: cells; conditions: Homo sapiens
Procedure: as §1

[6] = tested on: KM12-100 nM-B (no drug) cells; experiment: cells; conditions: Homo sapiens
Procedure: as §1

KM12-30 nM A cells = experiment: cells; conditions: for IC50: Homo sapiens
Procedure: as §1

KM12-100 nM A cells = experiment: cells; conditions: Homo sapiens
Procedure: as §1

KM12-100 nM-B cells = experiment: cells; conditions: Homo sapiens
Procedure: as §1

KM12-10 nM A cells = experiment: cells; conditions: Homo sapiens
Procedure: as §1

KM12-300 nM-B cells = experiment: cells; conditions: Homo sapiens
Procedure: as §1

KM12-3 nM A cells = experiment: cells; conditions: Homo sapiens
Procedure: as §1

KM12-30 nM-B cells = experiment: cells; conditions: Homo sapiens
Procedure: as §1

[7] = tested on: BaF3-tel/trkA-10 nMA(G595R) cells; format: cell-based, murine
Procedure: as §3, §1, §2

[8] = Table 8, cells without unit, read-out: IC50 (the source's name)
[9] = Homo sapiens, KM12-TPM3/trkA_G595R, Table 8, in μM, read-out: IC50
[10] = Homo sapiens, KM12-TPM3/trkA_G667C, Table 8, in μM, read-out: IC50
[11] = Table 8, in μM, read-out: IC50 (the source's name)
[12] = Table 9, read-out: IC50 (the source's name)

T4 sequence (P04629 whole entry G595R, the tested form may be a part): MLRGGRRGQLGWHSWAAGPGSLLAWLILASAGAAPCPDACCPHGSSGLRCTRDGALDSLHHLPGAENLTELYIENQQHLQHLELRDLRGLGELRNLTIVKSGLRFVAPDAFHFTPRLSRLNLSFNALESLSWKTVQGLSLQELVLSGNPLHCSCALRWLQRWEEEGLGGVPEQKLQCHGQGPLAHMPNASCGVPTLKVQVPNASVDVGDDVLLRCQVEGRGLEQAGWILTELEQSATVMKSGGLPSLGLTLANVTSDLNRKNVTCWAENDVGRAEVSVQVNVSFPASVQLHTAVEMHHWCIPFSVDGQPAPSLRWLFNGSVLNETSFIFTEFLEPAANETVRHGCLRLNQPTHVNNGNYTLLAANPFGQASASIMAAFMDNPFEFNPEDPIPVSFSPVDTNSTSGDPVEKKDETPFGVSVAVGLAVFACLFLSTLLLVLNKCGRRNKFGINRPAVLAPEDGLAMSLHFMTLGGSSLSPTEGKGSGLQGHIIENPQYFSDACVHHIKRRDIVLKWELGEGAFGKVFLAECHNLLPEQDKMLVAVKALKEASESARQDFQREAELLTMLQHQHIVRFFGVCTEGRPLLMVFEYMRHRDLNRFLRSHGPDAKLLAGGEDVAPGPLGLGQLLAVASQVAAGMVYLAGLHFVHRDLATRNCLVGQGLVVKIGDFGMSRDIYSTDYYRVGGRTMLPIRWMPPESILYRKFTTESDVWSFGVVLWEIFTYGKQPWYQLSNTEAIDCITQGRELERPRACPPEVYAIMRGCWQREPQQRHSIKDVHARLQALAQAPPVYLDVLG
T2 sequence (Q16288 whole entry, change not shown, the tested form may be a part): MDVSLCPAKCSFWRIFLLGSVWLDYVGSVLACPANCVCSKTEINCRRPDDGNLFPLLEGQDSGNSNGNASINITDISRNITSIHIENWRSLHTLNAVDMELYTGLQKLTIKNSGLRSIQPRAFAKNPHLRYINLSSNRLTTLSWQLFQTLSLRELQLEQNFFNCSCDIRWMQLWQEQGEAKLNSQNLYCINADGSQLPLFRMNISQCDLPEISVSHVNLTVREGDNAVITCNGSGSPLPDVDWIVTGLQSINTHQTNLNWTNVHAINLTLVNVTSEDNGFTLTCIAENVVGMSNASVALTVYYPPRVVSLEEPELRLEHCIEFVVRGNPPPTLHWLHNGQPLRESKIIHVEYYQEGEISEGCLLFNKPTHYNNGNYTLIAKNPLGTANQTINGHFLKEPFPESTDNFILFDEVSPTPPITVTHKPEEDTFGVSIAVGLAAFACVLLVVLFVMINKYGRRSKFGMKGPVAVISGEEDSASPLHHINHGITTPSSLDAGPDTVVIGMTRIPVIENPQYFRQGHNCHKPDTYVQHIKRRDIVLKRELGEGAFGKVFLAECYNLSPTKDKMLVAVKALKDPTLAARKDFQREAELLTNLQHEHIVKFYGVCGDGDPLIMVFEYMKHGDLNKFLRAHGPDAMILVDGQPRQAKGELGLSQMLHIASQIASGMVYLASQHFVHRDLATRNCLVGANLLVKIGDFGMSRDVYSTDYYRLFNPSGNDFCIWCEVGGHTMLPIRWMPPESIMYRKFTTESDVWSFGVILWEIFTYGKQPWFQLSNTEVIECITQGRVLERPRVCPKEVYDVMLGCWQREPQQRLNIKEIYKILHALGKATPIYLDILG
T3 sequence (P04629 whole entry, change not shown, the tested form may be a part): as the sequence (P04629 whole entry G595R, the tested form may be a part) above, with R595G counted along it
T1 sequence (Q16620 whole entry, change not shown, the tested form may be a part): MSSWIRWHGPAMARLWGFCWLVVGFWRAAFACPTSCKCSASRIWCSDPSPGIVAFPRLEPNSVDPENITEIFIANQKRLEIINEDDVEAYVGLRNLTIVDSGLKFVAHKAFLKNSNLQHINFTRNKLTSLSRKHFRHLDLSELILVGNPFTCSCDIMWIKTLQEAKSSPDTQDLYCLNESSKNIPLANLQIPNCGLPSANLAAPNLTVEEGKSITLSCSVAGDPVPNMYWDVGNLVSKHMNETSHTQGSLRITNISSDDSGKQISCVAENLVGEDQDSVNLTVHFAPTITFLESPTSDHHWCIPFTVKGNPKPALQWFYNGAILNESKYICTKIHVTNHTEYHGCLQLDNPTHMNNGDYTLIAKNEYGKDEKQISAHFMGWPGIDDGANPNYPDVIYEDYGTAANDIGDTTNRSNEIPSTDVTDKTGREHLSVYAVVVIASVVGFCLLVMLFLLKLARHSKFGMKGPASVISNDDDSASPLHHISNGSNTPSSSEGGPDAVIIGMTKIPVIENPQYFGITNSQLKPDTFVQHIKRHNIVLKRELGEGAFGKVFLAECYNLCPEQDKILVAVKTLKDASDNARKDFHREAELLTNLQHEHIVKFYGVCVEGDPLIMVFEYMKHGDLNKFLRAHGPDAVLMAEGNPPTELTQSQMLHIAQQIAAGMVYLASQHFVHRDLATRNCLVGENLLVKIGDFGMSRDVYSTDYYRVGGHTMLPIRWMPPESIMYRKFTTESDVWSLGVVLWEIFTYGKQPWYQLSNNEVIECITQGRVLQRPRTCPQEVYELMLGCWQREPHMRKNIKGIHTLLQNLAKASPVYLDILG

COc1cc(N2CCC(N3CCN(C)CC3)CC2)ccc1Nc1ncc(Cl)c(Nc2ccccc2S(=O)(=O)C(C)C)n1 [NVP-TAE684, 5-chloro-N2-[2-methoxy-4-[4-(4-methyl-1-piperazinyl)-1-piperidinyl]phenyl]-N4-[2-[(1-methylethyl)sulfonyl]phenyl]-2,4-Pyrimidinediamine]
inhibitory activity against mutant cells [1]: significant inhibitory activity

CN[C@@H]1C[C@H]2O[C@@](C)([C@@H]1OC)n1c3ccccc3c3c4c(c5c6ccccc6n2c5c31)C(=O)NC4 [Staurosporine, 9,13-Epoxy-1H,9H-diindolo[1,2,3-gh:3′,2′,1′-lm]pyrrolo[3,4-j][1,7]benzodiazonin-1-one, 2,3,10,11,12,13-hexahydro-10-methoxy-9-methyl-11-(methylamino)-, (9S,10R,11R,13R)-]
GI50 (BaF3-tel/trkB cells): 4.2 nM

CC(C)Oc1cc(Nc2nc(N[C@@H](C)c3ccc(F)cn3)ncc2Cl)n[nH]1 [AZ-23, 5-chloro-2-N-[(1S)-1-(5-fluoropyridin-2-yl)ethyl]-4-N-(3-propan-2-yloxy-1H-pyrazol-5-yl)pyrimidine-2,4-diamine]
GI50 (BaF3-tel/trkC cells; read-out: IC50, Table 9): 2.2 nM
GI50 (BaF3-tel/trkB cells): 3.3 nM

COC[C@@H](C)Nc1cc(N2CCN(C)CC2)ccc1C(=O)Nc1n[nH]c2ccc(S(=O)(=O)c3cc(F)cc(F)c3)cc12 [Compound 2, N-[5-(3,5-difluoro-benzenesulfonyl)-1H-indazol-3-yl]-2-((R)-2-methoxy-1-methyl-ethylamino)-4-(4-methyl-piperazin-1-yl) benzamide]
IC50 ([2]; KM12-TPM3/trkA_G595R, Table 8, cells without unit, read-out: IC50): 0.424 µM
inhibitory activity against mutant cells [1]: significant inhibitory activity
IC50 ([3]; KM12-TPM3/trkA_G667C, Table 8, cells without unit, read-out: IC50): 0.466 µM
IC50 ([4]; KM12-TPM3/trkA_WT, Table 8, cells without unit): 6.1 nM
GI50 (BaF3-tel/trkA_WT cells; [8]): 0.0023 µM
GI50 [5, 8]: 0.846 µM

C[C@@H](Oc1cc(-c2cnn(C3CCNCC3)c2)cnc1N)c1c(Cl)ccc(F)c1Cl [crizotinib, (R)-3-[1-(2,6-Dichloro-3-fluorophenyl)ethoxy]-5-[1-(piperidin-4-yl)-1H-pyrazol-4-yl]pyridin-2-amine]
IC50 [2, 9]: > 1 µM
IC50 [3, 10]: > 1 µM
IC50 ([4]; Homo sapiens, KM12): 76.6 nM
GI50 (BaF3-tel/trkA_WT cells; [8]): 0.179 µM
GI50 [5, 8]: 0.433 µM

Cc1cc(Nc2ncc(Cl)c(Nc3ccccc3S(=O)(=O)C(C)C)n2)c(OC(C)C)cc1C1CCNCC1 [ceritinib, 5-chloro-2-N-(5-methyl-4-piperidin-4-yl-2-propan-2-yloxyphenyl)-4-N-(2-propan-2-ylsulfonylphenyl)pyrimidine-2,4-diamine]
IC50 [2, 9]: > 1 µM
IC50 [3, 10]: > 1 µM
IC50 ([4]; Homo sapiens, KM12): 269 nM
GI50 (BaF3-tel/trkA_WT cells; [11]): > 1 µM
GI50 [5, 11]: > 1 µM

O=C(Nc1cnn2ccc(N3CCC[C@@H]3c3cc(F)ccc3F)nc12)N1CC[C@H](O)C1 [LOXO-101, (3S)-N-[5-[(2R)-2-(2,5-difluorophenyl)-1-pyrrolidinyl]pyrazolo[1,5-a]pyrimidin-3-yl]-3-hydroxy-1-pyrrolidinecarboxamide]
IC50 [2, 9]: > 1 µM
IC50 [3, 10]: > 1 µM
IC50 ([4]; Homo sapiens, KM12): 27 nM

C[C@H]1Oc2cc(cnc2N)-c2c(nn(C)c2C#N)CN(C)C(=O)c2ccc(F)cc21 [PF06463922, (10R)-7-amino-12-fluoro-10,15,16,17-tetrahydro-2,10,16-trimethyl-15-oxo-2H-4,8-Methenopyrazolo[4,3-h][2,5,11]benzoxadiazacyclotetradecine-3-carbonitrile]
IC50 ([2]; Homo sapiens, KM12): > 1 µM
IC50 ([3]; Homo sapiens, KM12): > 1 µM
IC50 ([4]; Homo sapiens, KM12): 206 nM
GI50 (BaF3-tel/trkA_WT cells; read-out: IC50, Table 8, cells without unit): 0.386 µM
GI50 ([5]; read-out: IC50, Table 8, in μM): > 1 µM

COC(=O)[C@@]1(O)C[C@H]2O[C@]1(C)n1c3ccccc3c3c4c(c5c6ccccc6n2c5c31)C(=O)NC4 [Compound K252a, 9,12-Epoxy-1H-diindolo[1,2,3-fg:3′,2′,1′-kl]pyrrolo[3,4-i][1,6]benzodiazocine-10-carboxylic acid, 2,3,9,10,11,12-hexahydro-10-hydroxy-9-methyl-1-oxo-, methyl ester, (9S,10R,12R)-]
GI50 (BaF3-tel/trkC cells; [12]): 14.3 nM
GI50 (BaF3-tel/trkB cells): 45.3 nM

CN1CCN(c2ccc(C(=O)Nc3n[nH]c4ccc(Cc5cc(F)cc(F)c5)cc34)c(NC3CCOCC3)c2)CC1 [entrectinib, N-[5-(3,5-difluorobenzyl)-1H-indazol-3-yl]-4-(4-methyl-piperazin-1-yl)-2-(tetrahydro-pyran-4-ylamino)-benzamide]
IC50 (KM12-1 nM A cells; KM12): 4.19 nM
IC50 (KM12-1 nM A cells; KM12, 72 h): 1.57 nM
IC50 [6]: 85.4 nM
IC50 (KM12-30 nM A cells; KM12): 6.47 nM
IC50 (KM12-30 nM A cells; KM12, 72 h): 3.41 nM
increase of IC50 value (KM12-30 nM A cells; KM12-30 nM-A treated cells versus cells cultured in DMSO and 1-10 nM entrectinib): ~2 fold
IC50 (KM12-100 nM A cells): 6.62 nM
IC50 (KM12-100 nM-B cells): 70.4 nM
IC50 (KM12-10 nM A cells; KM12): 4.65 nM
IC50 (KM12-10 nM A cells; KM12, 72 h): 1.71 nM
IC50 (KM12-300 nM-B cells): 209 nM
IC50 (KM12-3 nM A cells; KM12): 4.36 nM
IC50 (KM12-3 nM A cells; KM12, 72 h): 1.64 nM
IC50 (KM12-30 nM-B cells): 93.8 nM
GI50 (BaF3-tel/trkC cells; [12]): 5.5 nM
inhibitory activity against mutant cells [1]: significant inhibitory activity
GI50 (BaF3-tel/trkB cells): 8.7 nM
IC50 ([3]; Homo sapiens, KM12): 0.367 µM
IC50 ([4]; Homo sapiens, KM12, 72 h, KM12-DMSO-A, 3-day growth inhibition, Table 3): 1.26 nM
IC50 ([4]; Homo sapiens, KM12, 672 h, KM12-DMSO, Table 4, after about 4 weeks of increased entrectinib in Set A): 3.95 nM
IC50 ([4]; Homo sapiens, KM12, KM12-DMSO-B, Table 5): 1.14 nM
IC50 ([4]; Homo sapiens, KM12, KM12-TPM3/trkA_WT, Table 8, cells without unit): 3.4 nM
IC50 higher than that of the control parental line [7]: > 100 fold

CNC(=O)c1cc(Oc2ccc(NC(=O)Nc3cc(C(C)(C)C)nn3-c3ccc4ncccc4c3)c(F)c2)ccn1 [rebastinib, 4-[4-[(5-tert-butyl-2-quinolin-6-ylpyrazol-3-yl)carbamoylamino]-3-fluorophenoxy]-N-methylpyridine-2-carboxamide]
inhibitory activity against mutant cells [1]: significant inhibitory activity
